Source: ChEMBL document CHEMBL1240486, “Novel N-methylated 8-oxoisoguanines from Pacific sponges with diverse neuroactivities” (J Med Chem, 2010)
Calls of active or inactive are those of the source. No cut-off for these calls is given here.

Assays:
Mus musculus [1] = experiment: Neurotoxicity in ddY mouse assessed as changes in behavioral activity at 1 nmol/mouse, icv measured for 60 mins; type: toxicity, organism-based; details: in vivo, icv_or_intrathecal, 1 h
Mus musculus [2] = experiment: Neurotoxicity in ddY mouse assessed as changes in behavioral activity at >4 nmol/mouse, icv measured for 60 mins; type: toxicity, organism-based; details: in vivo, icv_or_intrathecal, 1 h
Mus musculus [3] = species on record: Mus musculus; experiment: Inhibition of GABAA receptor-mediated inhibitory synaptic currents in juvenile mouse CA1 neurons at 30 uM by whole-cell voltage clamp assay in presence of prazosin
Rattus norvegicus [4] = species on record: Rattus norvegicus; experiment: Inhibition of GABAA receptor-mediated postsynaptic current in rat hippocampal neurons at 30 uM after 5 mins by whole-cell voltage clamp assay; type: tissue-based; details: Hippocampus
Mus musculus [5] = experiment: Neurotoxicity in icv dosed ddY mouse assessed as 50% maximal convulsant dose measured for 60 mins; type: toxicity, organism-based; details: in vivo, icv_or_intrathecal, 1 h
Rattus norvegicus [6] = species on record: Rattus norvegicus; experiment: Displacement of [3H]AMPA from AMPA receptor in Sprague-Dawley rat synaptic membranes at 10 uM after 1 hr; type: cell membranes; details: Membrane
Rattus norvegicus [7] = species on record: Rattus norvegicus; experiment: Displacement of [3H]kainate from kainate receptor in Sprague-Dawley rat synaptic membranes at 10 uM after 1 hr; type: cell membranes; details: Membrane
[8] = target: Glutamate NMDA receptor (Rattus norvegicus) (UniProt P35439+Q00959+Q00960+Q00961+Q62645+Q8VHN2+Q9R1M7); experiment: Displacement of [3H]CGP39653 from NMDA receptor in Sprague-Dawley rat synaptic membranes at 10 uM after 1 hr; type: cell membranes; details: Membrane
Rattus norvegicus [9] = species on record: Rattus norvegicus; experiment: Inhibition of GABAA receptor-mediated postsynaptic current in rat hippocampal neurons at 10 uM after 5 mins by whole-cell voltage clamp assay; type: tissue-based; details: Hippocampus
Rattus norvegicus [10] = species on record: Rattus norvegicus; experiment: Effect on GABAA receptor-mediated spontaneous excitatory postsynaptic current in rat hippocampal neurons assessed as frequency of sEPSC bursts at 10 uM after 5 mins by whole-cell voltage clamp assay (reference value: 0.84 +/- 0.12 Hz); type: tissue-based; details: Hippocampus
Rattus norvegicus [11] = species on record: Rattus norvegicus; experiment: Inhibition of GABAA receptor-mediated inhibitory synaptic currents in rat hippocampal neurons assessed as sEPSC bursts at 10 uM after 5 mins by whole-cell voltage clamp assay (reference value: 5.6 +/- 1.6 Hz); type: tissue-based; details: Hippocampus
Rattus norvegicus [12] = species on record: Rattus norvegicus; experiment: Inhibition of GABAA receptor-mediated inhibitory synaptic currents in rat hippocampal neurons assessed as sEPSC bursts at 10 uM measured after compound washout by whole-cell voltage clamp assay; type: tissue-based; details: Hippocampus
Rattus norvegicus [13] = species on record: Rattus norvegicus; experiment: Inhibition of GABAA receptor-mediated miniature excitatory postsynaptic current in rat hippocampal neurons assessed as EPSC bursts at 10 uM after 5 mins by whole-cell voltage clamp assay (Rvb 0.69 +/- 0.21 Hz); type: tissue-based; details: Hippocampus
Rattus norvegicus [14] = species on record: Rattus norvegicus; experiment: Inhibition of GABAA receptor-mediated miniature inhibitory postsynaptic current in rat hippocampal neurons at 10 uM after 5 mins by whole-cell voltage clamp assay relative to baseline; type: tissue-based; details: Hippocampus
[15] = Inhibition of GABAA receptor-mediated miniature inhibitory postsynaptic current in rat hippocampal neurons at 10 uM after 5 mins by whole-cell voltage clamp assay relative to baseline in presence of nonselective adenosine receptor antagonist CGS-15943; type: functional; details: Hippocampus
Mus musculus [16] = species on record: Mus musculus; experiment: Inhibition of GABAA receptor-mediated inhibitory synaptic currents in juvenile mouse CA1 neurons at 30 uM by whole-cell voltage clamp assay
[17] = target: T1, Alpha-1A adrenergic receptor (Homo sapiens, UniProt P35348); experiment: Binding affinity to adrenergic alpha1A receptor
T1 sequence (P35348 whole entry): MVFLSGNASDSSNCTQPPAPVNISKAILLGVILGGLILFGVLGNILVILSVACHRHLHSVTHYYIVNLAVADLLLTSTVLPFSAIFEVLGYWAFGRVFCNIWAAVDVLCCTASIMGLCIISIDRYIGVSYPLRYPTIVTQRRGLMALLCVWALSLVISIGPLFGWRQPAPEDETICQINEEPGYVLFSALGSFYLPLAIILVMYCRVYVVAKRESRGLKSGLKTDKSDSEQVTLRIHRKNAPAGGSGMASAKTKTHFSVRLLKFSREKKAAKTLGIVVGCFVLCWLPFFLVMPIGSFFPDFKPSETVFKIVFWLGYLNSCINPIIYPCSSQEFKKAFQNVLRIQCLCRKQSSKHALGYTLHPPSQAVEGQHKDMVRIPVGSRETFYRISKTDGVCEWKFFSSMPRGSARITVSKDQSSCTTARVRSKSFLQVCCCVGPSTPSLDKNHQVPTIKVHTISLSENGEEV

[18] = target: T2, Alpha-1B adrenergic receptor (Homo sapiens, UniProt P35368); experiment: Binding affinity to adrenergic Alpha-1B receptor
T2 sequence (P35368 whole entry): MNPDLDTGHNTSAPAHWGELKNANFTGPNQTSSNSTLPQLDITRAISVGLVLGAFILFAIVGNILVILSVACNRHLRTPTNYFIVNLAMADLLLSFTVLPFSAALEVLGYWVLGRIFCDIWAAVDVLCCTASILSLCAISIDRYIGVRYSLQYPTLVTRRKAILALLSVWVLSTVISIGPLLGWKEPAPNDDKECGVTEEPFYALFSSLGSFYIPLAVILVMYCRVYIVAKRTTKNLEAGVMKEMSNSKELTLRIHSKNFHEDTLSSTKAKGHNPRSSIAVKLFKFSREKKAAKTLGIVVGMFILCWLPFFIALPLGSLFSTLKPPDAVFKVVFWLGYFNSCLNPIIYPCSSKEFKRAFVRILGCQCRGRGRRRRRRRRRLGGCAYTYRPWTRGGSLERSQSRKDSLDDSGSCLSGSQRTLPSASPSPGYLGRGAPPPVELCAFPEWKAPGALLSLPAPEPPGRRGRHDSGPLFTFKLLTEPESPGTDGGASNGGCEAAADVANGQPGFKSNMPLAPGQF

[19] = target: T3, Alpha-1D adrenergic receptor (Homo sapiens, UniProt P25100); experiment: Binding affinity to adrenergic Alpha-1D receptor
T3 sequence (P25100 whole entry): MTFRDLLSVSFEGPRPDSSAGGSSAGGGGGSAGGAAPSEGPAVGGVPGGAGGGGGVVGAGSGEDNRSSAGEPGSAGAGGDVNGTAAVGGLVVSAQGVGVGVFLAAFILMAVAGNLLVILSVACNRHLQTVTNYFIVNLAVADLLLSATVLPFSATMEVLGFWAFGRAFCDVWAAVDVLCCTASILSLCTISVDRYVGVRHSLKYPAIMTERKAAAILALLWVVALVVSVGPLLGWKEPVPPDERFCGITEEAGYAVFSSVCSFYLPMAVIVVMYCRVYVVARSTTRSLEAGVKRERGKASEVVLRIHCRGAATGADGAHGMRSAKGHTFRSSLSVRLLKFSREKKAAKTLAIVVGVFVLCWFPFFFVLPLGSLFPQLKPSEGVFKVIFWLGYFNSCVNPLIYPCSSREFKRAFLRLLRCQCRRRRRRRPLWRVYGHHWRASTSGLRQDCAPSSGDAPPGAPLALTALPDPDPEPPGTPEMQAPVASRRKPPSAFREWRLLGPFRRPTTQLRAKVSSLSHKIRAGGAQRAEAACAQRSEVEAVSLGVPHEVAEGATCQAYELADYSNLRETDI

[20] = target: 5-hydroxytryptamine receptor 1E (Homo sapiens, UniProt P28566); experiment: Binding affinity to 5HT1E receptor
[21] = target: Neuronal acetylcholine receptor; alpha3/beta2 (Homo sapiens, UniProt P17787+P32297); experiment: Binding affinity to nicotinic alpha3beta2 receptor receptor; type: protein-complex assay
[22] = target: Kappa-type opioid receptor (Homo sapiens, UniProt P41145); experiment: Binding affinity to kappa opioid receptor
Mu-type opioid receptor = Mu-type opioid receptor (Homo sapiens, UniProt P35372); experiment: Binding affinity to mu opioid receptor
Mus musculus [23] = species on record: Mus musculus; experiment: Inhibition of GABAA receptor-mediated inhibitory synaptic currents in juvenile mouse CA1 neurons at 30 uM by whole-cell voltage clamp assay in presence of SCH-50911
[24] = target: Glutamate receptor 4 (Homo sapiens) (UniProt P48058); experiment: Antagonist activity at recombinant GluA4 receptor expressed in HEK 293-T/17 cells assessed as glutamate-induced current at 100 uM by whole-cell recording relative to control; type: functional, cell-based; design: scale not given: the % may be the effect or the level left; details: HEK293
[25] = target: GABA A receptor alpha-4/beta-3/gamma-2 (Homo sapiens) (UniProt P18507+P28472+P48169); experiment: Antagonist activity at recombinant alpha-4-beta-3-gamma-2S receptor expressed in HEK 293-T/17 cells assessed as GABA-induced current at 30 uM by whole-cell recording relative to control; type: functional, cell-based; design: scale not given: the % may be the effect or the level left; details: HEK293
Rattus norvegicus [26] = species on record: Rattus norvegicus; experiment: Displacement of [3H]muscimol from GABA binding site of GABAA receptor in rat brain membrane at <10 uM; type: cell membranes
Rattus norvegicus [27] = species on record: Rattus norvegicus; experiment: Displacement of [3H]flunitrazepam from benzodiazepine binding site of GABAA receptor in rat brain membrane at <10 uM; type: cell membranes
Mus musculus [28] = species on record: Mus musculus; experiment: Inhibition of excitatory postsynaptic current in juvenile mouse CA1 neurons at 30 uM by whole-cell voltage clamp assay
Mus musculus [29] = experiment: Neurotoxicity in ddY mouse assessed as changes in behavioral activity at 14 nmol/mouse, icv measured for 60 mins; type: toxicity, organism-based; details: in vivo, icv_or_intrathecal, 1 h
Mus musculus [30] = experiment: Neurotoxicity in ddY mouse assessed as changes in behavioral activity at 30 to 110 nmol/mouse, icv measured for 60 mins; type: toxicity, organism-based; details: in vivo, icv_or_intrathecal, 1 h
Mus musculus [31] = experiment: Neurotoxicity in ddY mouse assessed as induction of convulsions at 0.05 to 0.1 umol, icv measured for 60 mins; type: toxicity, organism-based; details: in vivo, icv_or_intrathecal, 1 h
Mus musculus [32] = experiment: Neurotoxicity in ddY mouse assessed as changes in behavioral activity at 100 nmol/mouse, icv measured for 60 mins; type: toxicity, organism-based; details: in vivo, icv_or_intrathecal, 1 h
Mus musculus [33] = experiment: Neurotoxicity in ddY mouse assessed as changes in behavioral activity at 25 to 50 nmol/mouse, icv measured for 60 mins; type: toxicity, organism-based; details: in vivo, icv_or_intrathecal, 1 h
Mus musculus [34] = experiment: Neurotoxicity in ddY mouse assessed as changes in behavioral activity at >75 nmol/mouse, icv measured for 60 mins; type: toxicity, organism-based; details: in vivo, icv_or_intrathecal, 1 h
Mus musculus [35] = experiment: Toxicity in ddY mouse assessed as death at 0.1 umol, icv; type: organism-based; details: in vivo, icv_or_intrathecal
Mus musculus [36] = experiment: Neurotoxicity in ddY mouse assessed as induction of occasional tonic extension of forelimbs and weakness of lower bodies at 0.1 umol, icv measured for 60 mins; details: in vivo, icv_or_intrathecal, 1 h

Chain of Neuronal acetylcholine receptor; alpha3/beta2 (P17787 whole entry): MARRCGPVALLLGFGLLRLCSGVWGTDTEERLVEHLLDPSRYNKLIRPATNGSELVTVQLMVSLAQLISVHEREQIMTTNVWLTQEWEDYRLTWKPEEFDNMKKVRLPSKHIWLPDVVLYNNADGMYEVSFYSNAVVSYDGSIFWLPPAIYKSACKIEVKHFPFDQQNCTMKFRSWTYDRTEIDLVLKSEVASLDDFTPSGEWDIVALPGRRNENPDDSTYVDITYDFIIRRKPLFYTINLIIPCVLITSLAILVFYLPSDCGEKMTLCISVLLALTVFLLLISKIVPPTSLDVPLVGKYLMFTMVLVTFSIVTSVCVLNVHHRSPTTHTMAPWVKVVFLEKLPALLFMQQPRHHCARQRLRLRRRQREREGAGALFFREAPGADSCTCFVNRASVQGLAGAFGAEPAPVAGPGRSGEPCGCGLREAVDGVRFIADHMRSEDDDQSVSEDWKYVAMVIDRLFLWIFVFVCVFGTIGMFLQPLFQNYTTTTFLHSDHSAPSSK
Chain of Neuronal acetylcholine receptor; alpha3/beta2 (P32297 whole entry): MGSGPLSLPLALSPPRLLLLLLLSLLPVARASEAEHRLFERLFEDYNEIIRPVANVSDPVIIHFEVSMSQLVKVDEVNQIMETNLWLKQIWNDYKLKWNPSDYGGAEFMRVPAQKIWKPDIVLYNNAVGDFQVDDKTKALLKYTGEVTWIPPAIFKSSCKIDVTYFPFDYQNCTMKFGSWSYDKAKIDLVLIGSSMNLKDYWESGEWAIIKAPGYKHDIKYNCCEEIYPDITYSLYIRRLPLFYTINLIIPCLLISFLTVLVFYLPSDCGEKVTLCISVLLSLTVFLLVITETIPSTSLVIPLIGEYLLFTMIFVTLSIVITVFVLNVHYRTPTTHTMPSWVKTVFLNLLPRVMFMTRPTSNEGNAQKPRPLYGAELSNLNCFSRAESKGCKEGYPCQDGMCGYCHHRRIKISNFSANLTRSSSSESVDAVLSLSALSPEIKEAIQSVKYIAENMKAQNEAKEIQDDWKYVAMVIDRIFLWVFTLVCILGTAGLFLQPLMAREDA
Chain of Mu-type opioid receptor (P35372 whole entry): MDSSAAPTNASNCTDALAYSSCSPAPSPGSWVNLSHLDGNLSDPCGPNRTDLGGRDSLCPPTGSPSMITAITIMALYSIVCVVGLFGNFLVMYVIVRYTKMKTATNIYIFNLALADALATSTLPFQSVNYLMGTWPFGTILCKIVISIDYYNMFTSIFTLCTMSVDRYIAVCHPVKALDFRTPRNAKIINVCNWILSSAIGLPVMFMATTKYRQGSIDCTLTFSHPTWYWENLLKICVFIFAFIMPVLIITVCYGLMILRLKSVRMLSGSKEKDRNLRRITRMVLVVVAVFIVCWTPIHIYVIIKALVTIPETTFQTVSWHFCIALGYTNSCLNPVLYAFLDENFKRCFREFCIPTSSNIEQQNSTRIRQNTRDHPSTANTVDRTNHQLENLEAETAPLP
Chain of Glutamate receptor 4 (Homo sapiens) (P48058 whole entry): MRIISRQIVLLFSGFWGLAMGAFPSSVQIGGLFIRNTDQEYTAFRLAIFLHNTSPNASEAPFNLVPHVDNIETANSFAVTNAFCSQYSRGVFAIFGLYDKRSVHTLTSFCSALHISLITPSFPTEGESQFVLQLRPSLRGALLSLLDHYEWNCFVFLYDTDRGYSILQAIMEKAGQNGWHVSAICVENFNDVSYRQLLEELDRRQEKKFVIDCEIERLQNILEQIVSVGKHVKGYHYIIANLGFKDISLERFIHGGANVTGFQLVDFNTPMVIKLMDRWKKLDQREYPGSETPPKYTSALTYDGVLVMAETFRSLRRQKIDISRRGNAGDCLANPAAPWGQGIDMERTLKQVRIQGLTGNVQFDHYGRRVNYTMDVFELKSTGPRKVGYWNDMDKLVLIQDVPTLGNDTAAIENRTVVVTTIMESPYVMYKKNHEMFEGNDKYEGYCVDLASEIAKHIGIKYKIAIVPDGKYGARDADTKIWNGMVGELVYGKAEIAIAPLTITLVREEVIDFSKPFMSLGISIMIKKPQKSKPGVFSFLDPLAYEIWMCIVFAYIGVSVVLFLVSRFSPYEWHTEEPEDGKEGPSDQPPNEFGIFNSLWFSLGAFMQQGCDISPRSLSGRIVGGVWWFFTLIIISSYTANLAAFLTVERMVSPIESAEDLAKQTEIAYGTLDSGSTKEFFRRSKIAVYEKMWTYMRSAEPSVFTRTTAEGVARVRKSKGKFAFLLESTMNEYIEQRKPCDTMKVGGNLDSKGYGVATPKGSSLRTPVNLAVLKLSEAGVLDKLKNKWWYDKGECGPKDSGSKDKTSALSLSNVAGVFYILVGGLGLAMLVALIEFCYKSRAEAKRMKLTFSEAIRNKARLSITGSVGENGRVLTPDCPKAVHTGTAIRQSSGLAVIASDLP
Chain of Kappa-type opioid receptor (P41145 whole entry): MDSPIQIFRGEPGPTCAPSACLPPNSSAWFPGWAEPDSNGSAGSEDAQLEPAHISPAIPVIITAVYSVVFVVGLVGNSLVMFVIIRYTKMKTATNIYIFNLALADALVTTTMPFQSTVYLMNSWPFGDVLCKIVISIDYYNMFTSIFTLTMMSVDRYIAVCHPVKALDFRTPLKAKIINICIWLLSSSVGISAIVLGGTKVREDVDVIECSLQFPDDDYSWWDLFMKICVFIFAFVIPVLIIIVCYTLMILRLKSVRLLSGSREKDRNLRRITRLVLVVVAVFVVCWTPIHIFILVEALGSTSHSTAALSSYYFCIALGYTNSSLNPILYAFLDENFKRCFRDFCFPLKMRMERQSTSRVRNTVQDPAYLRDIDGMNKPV
Chain of 5-hydroxytryptamine receptor 1E (P28566 whole entry): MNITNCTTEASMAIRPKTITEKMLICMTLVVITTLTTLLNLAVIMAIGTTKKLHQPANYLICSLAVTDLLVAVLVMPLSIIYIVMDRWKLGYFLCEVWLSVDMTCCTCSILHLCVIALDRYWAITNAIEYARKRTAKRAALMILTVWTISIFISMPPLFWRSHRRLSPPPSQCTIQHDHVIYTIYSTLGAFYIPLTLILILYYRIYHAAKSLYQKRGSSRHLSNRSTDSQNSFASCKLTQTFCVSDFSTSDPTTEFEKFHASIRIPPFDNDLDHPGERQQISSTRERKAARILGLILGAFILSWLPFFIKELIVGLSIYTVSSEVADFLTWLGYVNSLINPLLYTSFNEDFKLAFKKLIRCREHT

Cl.Cn1c(=O)[nH]c2c([nH]c(=O)n2C)c1=N
Activity (Mus musculus [1]): Toxic | Activity (Mus musculus [2]): Toxic | inhibition (Mus musculus [3]): Active | inhibition (Rattus norvegicus [4]): Active | Activity (Mus musculus [5]): 2.4 nmol | inhibition (Rattus norvegicus [6]): inactive | inhibition (Rattus norvegicus [7]): inactive | inhibition [8]: inactive | inhibition (Rattus norvegicus [9]): Active | Activity (Rattus norvegicus [10]): 0.9 Hz | Activity (Rattus norvegicus [11]): 3.6 Hz | Activity (Rattus norvegicus [12]): 6 Hz | Activity (Rattus norvegicus [13]): 0.95 Hz | inhibition (Rattus norvegicus [14]): 32% | inhibition at 10 µM [15]: 29.6% | inhibition (Mus musculus [16]): 71% | Ki [17]: 0.885 µM | Ki [18]: 0.758 µM | Ki [19]: 0.497 µM | Ki [20]: 2.9 µM | Ki [21]: 4.2 µM | Ki [22]: 1.8 µM | Ki (Mu-type opioid receptor): 8.9 µM | inhibition (Mus musculus [23]): Active | Activity [24]: 100% | Activity [25]: 93% | inhibition (Rattus norvegicus [26]): inactive | inhibition (Rattus norvegicus [27]): inactive | inhibition (Mus musculus [28]): 22%

Cl.Cn1c(=O)[nH]c2c(=N)[nH]c(=O)[nH]c21
Activity (Mus musculus [29]): Toxic | Activity (Mus musculus [30]): Toxic | Activity (Mus musculus [5]): 18 nmol | Activity (Mus musculus [31]): Toxic

Cl.Cn1c(=O)[nH]c(=N)c2[nH]c(=O)n(C)c21
Activity (Mus musculus [32]): Toxic

Cl.Cn1c(=N)c2[nH]c(=O)[nH]c2n(C)c1=O
Activity (Mus musculus [33]): Toxic | Activity (Mus musculus [34]): Toxic | Activity (Mus musculus [5]): 54 nmol | Activity (Mus musculus [35]): Toxic | Activity (Mus musculus [36]): Toxic
